In brackets after ≈: the same amount, converted by molar mass.

Data set [1] concerns Aspergillus niger ATCC 16404. The data set can be described thus: Antifungal MIC in Sabouraud broth. The data set is classed as cell-based. As to conditions: 25° C. for 7 days; inoculum 10^3-10^4 cfu/ml. Here is the method: (§1) The minimal inhibitory concentration (MIC) was determined using a method with Sabouraud broth (Becton Dickinson) and an initial inoculum 10^3-10^4 cfu/ml. Polypropylene 96-well plates (Nunc) were incubated at 25° C. for 48 h (for Candida albicans ATCC 10231) or 7 days (for Aspergillus niger ATCC 16404). The MIC was taken as the lowest drug concentration at which noticeable growth was inhibited. The experiments were performed in duplicate.

The subject of data set [2] is Candida albicans ATCC 10231. The data set can be described thus: Antifungal MIC in Sabouraud broth. As to conditions: 25° C. for 48 h; inoculum 10^3-10^4 cfu/ml. The data set is classed as cell-based. The method, then: as §1
A further data set has as its system S.aureus. Nature of the data set: MIC by broth dilution. As to conditions: growth media without DMSO. The data set is classed as cell-based. The method, then:
(§2) MIC/MBC determinations were performed by broth dilution according to established procedures, well known for a person skilled in the art.
A general note: Dilution methods test growth across graded concentrations, often in twofold steps.

Another data set has as its system GAS. Nature of the data set: MIC by broth dilution. As to conditions: growth media without DMSO. The data set is classed as cell-based, group A Streptococci. Here is the method:
as §2

Another data set can be described thus: Solubility. The following applies: KCl gradient eluent during ion exchange isolation. It counts as physicochemical.
Another data set has as its system streptococcal challenge. Nature of the data set: Lethal streptococcal challenge in the mouse. It counts as in vivo.
The next data set deals with labial herpes. Nature of the data set: Topical application in softening cream to a beginning labial herpes outbreak. It counts as in vivo, human. The following applies: 0.2 ml solution (0.1 g/l) in softening cream on the lip; performed twice. Here is the method:
Cp1 was added to a softening cream and 0.2 ml solution (0.1 g/l) was applied to an area of a beginning labial herpes outbreak on the lip of a person. After 3-4 hours the symptoms was gone. The experiment was performed twice.

For data set [3], the system named is Staphylococci incl. multiresistant MRSA. Nature of the data set: Agar well diffusion. As to conditions: 40 ul of 1 mg/ml in DMSO per well.
Data set [4] deals with CNS incl. resistant and multiresistant MRSE. Nature of the data set: Agar well diffusion. The following applies: 40 ul of 1 mg/ml in DMSO per well. (A growth-free zone around the sample is the usual read-out of agar diffusion tests.)
Another data set deals with Streptococcus: group B. The data set can be described thus: Agar well diffusion. The following applies: 40 ul of 1 mg/ml in DMSO per well.
The test system of the next data set is Streptococcus: group C. Nature of the data set: Agar well diffusion. As to conditions: 40 ul of 1 mg/ml in DMSO per well.
A further data set concerns Streptococcus: group G. The data set can be described thus: Agar well diffusion. As to conditions: 40 ul of 1 mg/ml in DMSO per well.
For another data set, the system named is Streptococcus: group A. The data set can be described thus: Agar well diffusion. The following applies: 40 ul of 1 mg/ml in DMSO per well.
Another data set deals with L. monocytogenes. The data set can be described thus: Agar well diffusion. The following applies: 40 ul of 1 mg/ml in DMSO per well.
A further data set deals with S. pneumoniae. Nature of the data set: Agar well diffusion. The following applies: 40 ul of 1 mg/ml in DMSO per well.
In data set [5] the test system is E. coli and other Gram-negatives. The data set can be described thus: Agar well diffusion.
Data set [6] relates to α-haemolytic Streptococci. The data set can be described thus: Agar well diffusion. The following applies: 40 ul of 1 mg/ml in DMSO per well.
A further data set has as its system MRSA. Nature of the data set: Growth inhibition of clinical isolates. As to conditions: approximately 100 strains of MRSA, several with additional resistance markers.

Turning to `CC(C)CC(NC(=O)C(CCCN=C(N)N)NC(=O)OCc1ccccc1)C(=O)N[C@H](CNC(=O)/C=C/c1ccccc1)C(C)C` (stereo in doubt) [Cp1, (2S)-2-[(N^α-Benzyloxycarbonyl-Arginyl-Leucyl)-Amino]-1-Trans-Cinnamoylamino-3-Methylbutane], in data set [1], the “MIC Aspergillus niger ATCC 16404” value is 64 µg/mL (≈ 101 µM). Besides, the “MIC Candida albicans ATCC 10231” value in [2] is on record as 32 µg/ml. Moreover, the MIC entry in the data set with S.aureus and against GAS was “approximately 16 mg/L” throughout. In “Solubility”, the “solubility in the presence of salts” value is recorded as “weak solubility”. For the same compound, in the data set with streptococcal challenge, the “protective capacity for lethal streptococcal challenge” value is listed as “strong protective capacity”. For the same compound, the “time after which the symptoms were gone” value in the data set with labial herpes is 3 to 4 h. In addition, the antibacterial effect entry (in data set [3]; in [4]; with Streptococcus: group B; in the data set on Streptococcus: group C; with Streptococcus: group G; in the data set with Streptococcus: group A) was “+” throughout. The antibacterial effect result with L. monocytogenes was “+”; in the data set on S. pneumoniae it was “+”; in [5] (E. coli and other Gram-negatives, 40 ul of 1 mg/ml in DMSO per well), “−”; in data set [6] it was “−”. The “activity against gram-negative bacteria” value in data set [5] is on record as “low or no activity”. In the data set with MRSA, the “growth inhibition of MRSA strains” value is “strongly inhibited in their growth”.

For the origin of these results see patent US7691805B2, “Antimicrobial compounds” (Neobiotics AB, priority 2004, dated 2010).
